Data as given in patent US9855236B2, “Pharmaceutical compositions comprising DGLA and/or 15-HETrE and methods of use thereof” (Dignity Sciences Limited, priority 2011, dated 2018).

Key:
[1] = system: UV-induced edema and erythema; assay: Sinclair miniature swine phototoxicity model: sites treated topically for 7 days, then exposed to UV (prevention); format: in vivo; settings: for prevention of UV-induced erythema: topical before UV exposure; for average Draize score as compared to test sites treated with the control vehicle: test sites first treated topically twice daily for 7 days, then exposed to UV radiation, vehicle ethanol, FIGS. 7-12
Procedure: Compositions comprising DGLA and/or 15-HETrE were tested for their ability to treat and/or prevent edema and erythema (e.g., UV induced erythema). In an exemplary method, a Sinclair miniature swine model of phototoxicity testing was employed to examine the effects of such compositions on UV-induced edema and erythema. Miniature swine were chosen for these studies as they have a skin structure that closely resembles that of humans. The miniature swine used in these studies were fed standard Sinclair S-9 ration or equivalent, once a day at a maintenance amount and had ad libitum access to deep well water. Throughout the study, the swine were housed individually in cages (˜3×5 ft) constructed of stainless steel with self-spanned polyvinyl chloride (PVC)-coated expanded metal flooring. The animal housing rooms were set to maintain a room temperature of 16 to 27° C. (61 to 81° F.), with fluorescent lights providing an approximate 12-hr light/12-hr dark photoperiod. The animals were acclimated for approximately 5 days prior to the start of dosing. During acclimation, animals were subject to a physical examination by a veterinarian and any animal with questionable health was excluded from these studies. For these studies, two groups each consisting of three animals (#1-#3) were used. For each animal, ten sites (e.g., dose sites) for were established on the torso and the hair at the site was clipped with an electric clipper. These sites were then shaved and demarcated by tattooing at least four days prior to the start of initial dosing on study day 1. The dose sites may be shaved with a razor the day prior to initial dose administration and prior to the second and third application when applicable. The sites (approximately 4 cm^2 in size) were evenly split on the left and right side with 5 sites demarcated on each side. Each animal was topically administered a composition comprising a control vehicle (ethanol), DGLA or HETrE to the demarcated test sites on the animal before and/or after exposure of the test sites to UV radiation. Specifically, […] comprising 0.1 mg/mL, 1.0 mg/mL, or 10 mg/mL 15-HETrE was applied to separate 4 cm^2 areas of the skin (e.g., test sites) on each animal to achieve a dose per area of 0.1 mg/4 cm^2, 1.0 mg/4 cm^2, or 10.0 mg/4 cm^2 DGLA or 0.1 mg/4 cm^2, 1.0 mg/4 cm^2, or 10.0 mg/4 cm^2 15-HETrE, respectively. Such compositions were applied via a pipette twice daily with approximately seven hours between administrations over 7 days. Table 1 below outlines the dosing regimen for the 10 sites on each animal and indicates the day that the animal was administered a dose of UV radiation. For example, for test sites 5-7, the sites were first exposed to UV radiation on day 4 and then contacted topically with DGLA or HETrE on days 4-10. Additionally, for example, for test sites 8-10, the sites were topically contacted with DGLA or HETrE on days 1-7 and then exposed to UV radiation on day 8. [table] Animals receiving UV light were anesthetized via isoflurane gas and 100% oxygen. To exposure the animals to UV, a bank of fluorescent lamps utilizing 10 UVA and 1 UVB bulb was then suspended over the animal. The correct dose level of UV light applied to the designated dose site was verified using a Solar Light® light meter. Animals were exposed to MED/hi of 4 for a time period of 21 minutes yielding a MEDi of 1.4. […]

[2] = system: UV-induced edema and erythema; assay: Sinclair miniature swine phototoxicity model: sites exposed to UV, then treated topically for 7 days (treatment); format: in vivo; settings: for average Draize score as compared to test sites treated with the control vehicle: test sites first exposed to UV radiation, then treated topically twice daily for 7 days, any of the tested dosages, vehicle ethanol, FIGS. 1-6; for treating or reversing UV induced erythema: topical application after UV exposure
Procedure: Compositions comprising DGLA and/or 15-HETrE were tested for their ability to treat and/or prevent edema and erythema (e.g., UV induced erythema). In an exemplary method, a Sinclair miniature swine model of phototoxicity testing was employed to examine the effects of such compositions on UV-induced edema and erythema. Miniature swine were chosen for these studies as they have a skin structure that closely resembles that of humans. The miniature swine used in these studies were fed standard Sinclair S-9 ration or equivalent, once a day at a maintenance amount and had ad libitum access to deep well water. Throughout the study, the swine were housed individually in cages (˜3×5 ft) constructed of stainless steel with self-spanned polyvinyl chloride (PVC)-coated expanded metal flooring. The animal housing rooms were set to maintain a room temperature of 16 to 27° C. (61 to 81° F.), with fluorescent lights providing an approximate 12-hr light/12-hr dark photoperiod. The animals were acclimated for approximately 5 days prior to the start of dosing. During acclimation, animals were subject to a physical examination by a veterinarian and any animal with questionable health was excluded from these studies. For these studies, two groups each consisting of three animals (#1-#3) were used. For each animal, ten sites (e.g., dose sites) for were established on the torso and the hair at the site was clipped with an electric clipper. These sites were then shaved and demarcated by tattooing at least four days prior to the start of initial dosing on study day 1. The dose sites may be shaved with a razor the day prior to initial dose administration and prior to the second and third application when applicable. The sites (approximately 4 cm^2 in size) were evenly split on the left and right side with 5 sites demarcated on each side. Each animal was topically administered a composition comprising a control vehicle (ethanol), DGLA or HETrE to the demarcated test sites on the animal before and/or after exposure of the test sites to UV radiation. Specifically, a 0.1 mL dose of a composition comprising 1 mg/mL, 10 mg/mL, or 100 mg/mL of DGLA and a 0.1 mL dose of a composition comprising 0.1 mg/mL, 1.0 mg/mL, or 10 mg/mL 15-HETrE was applied to separate 4 cm^2 areas of the skin (e.g., test sites) on each animal to achieve a dose per area of 0.1 mg/4 cm^2, 1.0 mg/4 cm^2, or 10.0 mg/4 cm^2 DGLA or 0.1 mg/4 cm^2, 1.0 mg/4 cm^2, or 10.0 mg/4 cm^2 15-HETrE, respectively. Such compositions were applied via a pipette twice daily with approximately seven hours between administrations over 7 days. Table 1 below outlines the dosing regimen for the 10 sites on each animal and indicates the day that the animal was administered a dose of UV radiation. […]

Row | SMILES | skin irritation by the high dose ([1]; 10 mg/mL dose of DGLA, topical, prevention of erythema could not be determined at this dose) | prevention of UV-induced erythema ([1]; dose of 0.1 or 1.0 mg/mL DGLA) | average Draize score as compared to test sites treated with the control vehicle [1] | average Draize score as compared to test sites treated with the control vehicle [2] | treating or reversing UV induced erythema [2] | prevention of UV-induced erythema ([1]; dose of 0.01, 0.1, or 1.0 mg/mL HETrE)
1 | CCCCC/C=C\C/C=C\C/C=C\CCCCCCC(=O)O [DGLA, cis-8,11,14-eicosatrienoic acid] | irritating to the skin | able to prevent UV-induced erythema | significant reduction | did not exhibit an appreciable difference | not capable of treating or reversing UV induced erythema | –
2 | CCCCCC(O)/C=C/C=C\C/C=C\CCCCCCC(=O)O (stereo not drawn) [HETrE, 15-Hydroxy-eicosa-8(Z),11(Z),13(E)-trienoic acid] | – | – | significant reduction | did not exhibit an appreciable difference | not capable of treating or reversing UV induced erythema | able to prevent UV-induced erythema
